Marks after values point to notes of the source that are not given here.
Columns and labels:
[1] = system: Prm1-directed luciferase expression; assay: Effect of PMA, PD98059 or Vitamin D3 on Prm1-directed luciferase expression in HEL cells; assay type: cell-based, human
Protocol: HEL and EA.hy 926 cells were co-transfected with the various pGL3Basic-recombinant plasmids (2 mg), encoding firefly luciferase, along with pRL-TK (200 ng), encoding renilla luciferase, using DMRIE-C® transfection reagent. HEK293, WI-38, and 1° hAoSMCs were co-transfected with the pGL3Basic-recombinant plasmids (2 mg), along with pRL-TK (200 ng), using Effectene transfection reagent. In all cases, cells co-transfected with pRL-TK (200 ng) in the presence of either the pGL3Control vector (firefly luciferase gene under the control of the SV40 promoter; 2 mg) or the promoter-less pGL3Basic empty vector (2 mg), which served as positive and negative controls, respectively. […] Relative firefly to renilla luciferase activity (arbitrary units) was calculated as a ratio and was expressed in relative luciferase units (RLU). To investigate the effect of over-expression of exon 5 (+ or −) or KTS (+ or −) isoforms of WT1 on Prm1-directed gene expression, HEL cells were co-transfected with either pGL3b:Prm1 or pGL3b:Prm1D (1.5 μg) plus 200 ng of pRL-TK along with either pcDNA3:WT1 (+/+), pcDNA3:WT1 (+/−), pcDNA3:WT1 (−/+), pcDNA3:WT1 (−/−) (0.5 μg), or as a control, pcDNA3 (0.5 μg). […] The plasmid pCMV5-NAB1, containing the entire coding sequence for NAB1, was generously donated by Dr. Gerald Thiel, University of Saarland Medical Center, Homburg, Germany, and has been described previously (Thiel et al., 2000). To investigate the effect of over-expression of NAB1 on the PMA-mediated induction of Prm1-directed gene expression, HEL cells were transiently co-transfected with pGL3b:Prm1 (2 μg) plus pRL-TK (200 ng) along with either pCMV5 (control) or pCMV:NAB1 (1 μg).

[2] = system: HEL 92.1.7 cells; assay: Dual luciferase genetic reporter assay of promoter-directed luciferase expression in HEL cells; assay type: cell-based, human; conditions: for Decrease in luciferase expression relative to Prm1B (−7962): 5′ deletion or site-directed mutation of Prm1B; for Luciferase expression compared with another construct, in words: comparator as named in the words or parent fragment; for Decrease in luciferase expression relative to Prm1HΔ (−6320): site-directed mutation within Prm1HΔ; for Increase in luciferase activity relative to Prm1 (−8500): 5′ deletion or site-directed mutation of Prm1
Protocol: HEL and EA.hy 926 cells were co-transfected with the various pGL3Basic-recombinant plasmids (2 mg), encoding firefly luciferase, along with pRL-TK (200 ng), encoding renilla luciferase, using DMRIE-C® transfection reagent. HEK293, WI-38, and 1° hAoSMCs were co-transfected with the pGL3Basic-recombinant plasmids (2 mg), along with pRL-TK (200 ng), using Effectene transfection reagent. In all cases, cells co-transfected with pRL-TK (200 ng) in the presence of either the pGL3Control vector (firefly luciferase gene under the control of the SV40 promoter; 2 mg) or the promoter-less pGL3Basic empty vector (2 mg), which served as positive and negative controls, respectively. Firefly and renilla luciferase expression was assayed some 48 h post-transfection using the Dual-Luciferase Reporter Assay System™, as described (Coyle et al., 2005). Relative firefly to renilla luciferase activity (arbitrary units) was calculated as a ratio and was expressed in relative luciferase units (RLU). To investigate the effect of over-expression of exon 5 (+ or −) or KTS (+ or −) isoforms of WT1 on Prm1-directed gene expression, HEL cells were co-transfected with either pGL3b:Prm1 or pGL3b:Prm1D (1.5 μg) plus 200 ng of pRL-TK along with either pcDNA3:WT1 (+/+), pcDNA3:WT1 (+/−), pcDNA3:WT1 (−/+), pcDNA3:WT1 (−/−) (0.5 μg), or as a control, pcDNA3 (0.5 μg). Cells were harvested 48 h post-transfection and assayed for luciferase activity, as above, or subjected to western blot or RT-PCR analysis. The plasmids pcDNA3:WT1 (+/+), pcDNA3:WT1 (+/−), pcDNA3:WT1 (−/+) and pcDNA3:WT1 (−/−) were generously donated by Dr. Charles T. Roberts JR, Oregon National Primate Research Center, Oregon, USA and have been previously described (Tajinda et al., 1999). For PMA studies, approximately 32 h post-transfection, the medium was supplemented with PMA (100 nM), with PMA (100 nM) and PD98059 (10 μM) or, as a control, with vehicle [0.1% (v/v) DMSO]. After 16 h, cells were assayed for firefly and renilla luciferase using the Dual-Luciferase Reporter Assay System™ as previously described (Coyle et al., 2005). The plasmid pCMV5-NAB1, containing the entire coding sequence for NAB1, was generously donated by Dr. Gerald Thiel, University of Saarland Medical Center, Homburg, Germany, and has been described previously (Thiel et al., 2000). To investigate the effect of over-expression of NAB1 on the PMA-mediated induction of Prm1-directed gene expression, HEL cells were transiently co-transfected with pGL3b:Prm1 (2 μg) plus pRL-TK (200 ng) along with either pCMV5 (control) or pCMV:NAB1 (1 μg). Cells were harvested 48 h post-transfection and assayed for luciferase activity, as above.

C=C1/C(=C\C=C2/CCC[C@]3(C)[C@@H]([C@H](C)CCCC(C)(C)O)CC[C@@H]23)C[C@@H](O)C[C@@H]1O [Vitamin D3, 1α, 25-dihydroxy-vitamin D3]
Effect on luciferase expression directed by Prm1K ([1]; 80 nM Vitamin D3, 24 h or 30 h): no significant effect on luciferase expression directed by Prm1K | Increase in Prm1-directed luciferase expression ([1]; 80 nM Vitamin D3, 30 h): 1.6 fold

Prm1B^Ets(−7870)*: Prm1B with Ets element at −7870 mutated (SEQ ID NO:19) (DNA GACAGGTGAAGTGGGGA; expressed or natural sequence; listed as Homo sapiens)
Decrease in luciferase expression relative to Prm1B (−7962) ([2]; HEL): 2.2 fold

Prm1B^GATA(−7890)*: Prm1B with GATA element at −7890 mutated (SEQ ID NO:17) (DNA CTTGGTAGCTCAG; expressed or natural sequence; listed as Homo sapiens)
Decrease in luciferase expression relative to Prm1B (−7962) ([2]; HEL): 1.8 fold

Prm1BΔGata/Ets^Ets(−7805)*: Prm1BΔGata/Ets with Ets element at −7805 mutated (SEQ ID NO:21) (DNA GCCCCACATCACCCTCC; expressed or natural sequence; listed as Homo sapiens)
Luciferase expression compared with another construct, in words ([2]; HEL): did not significantly affect the level of luciferase activity

Prm1D^GC*^(−6717): Prm1D with GC element at −6717 mutated (SEQ ID NO:23) (DNA TCTGTCCTATCACCCCA; expressed or natural sequence; listed as Homo sapiens)
Increase in luciferase expression relative to Prm1D (−6848) ([2]; HEL, 5′ deletion or site-directed mutation of Prm1D): 4.8 fold

Prm1HΔ^NF-E2/AP1(−6080)*: Prm1HΔ with NF-E2/AP1 element at −6080 mutated (SEQ ID NO:33) (DNA CCAGACACACTCAGTTTCCCT; expressed or natural sequence; listed as Homo sapiens)
Decrease in luciferase expression relative to Prm1HΔ (−6320) ([2]; HEL): reduced luciferase activity

Prm1HΔ^Sp1/Egr1(−6007)*: Prm1HΔ with Sp1/Egr1 element at −6007 mutated (SEQ ID NO:37) (DNA CCCTCGCAATACCCTCGG; expressed or natural sequence; listed as Homo sapiens)
Decrease in luciferase expression relative to Prm1HΔ (−6320) ([2]; HEL): 1.5 fold

Prm1HΔ^Sp1/Egr1(−6022)*: Prm1HΔ with Sp1/Egr1 element at −6022 mutated (SEQ ID NO:35) (DNA TCTGCCCTAACCCAGCCCT; expressed or natural sequence; listed as Homo sapiens)
Decrease in luciferase expression relative to Prm1HΔ (−6320) ([2]; HEL): 1.8 fold

Prm1HΔ^Sp1/Egr1(−6278)*: Prm1HΔ with Sp1/Egr1 element at −6278 mutated (SEQ ID NO:27) (DNA CGCAGGGTGTATGGGGCTG; expressed or natural sequence; listed as Homo sapiens)
Decrease in luciferase expression relative to Prm1HΔ (−6320) ([2]; HEL): reduced luciferase activity

Prm1HΔ^Sp1/Egr1(−6294)*: Prm1HΔ with Sp1/Egr1 element at −6294 mutated (SEQ ID NO:25) (DNA CGAGGAACATGGCCA; expressed or natural sequence; listed as Homo sapiens)
Decrease in luciferase expression relative to Prm1HΔ (−6320) ([2]; HEL): 1.3 fold

Prm1I^GC*^(−6206): Prm1I with GC element at −6206 mutated (SEQ ID NO:29) (DNA CAGCGGCCTACACCCGT; expressed or natural sequence; listed as Homo sapiens)
Increase in luciferase activity relative to Prm1I (−6258) ([2]; HEL, 5′ deletion or mutation of Prm1I): 1.3 fold

Prm1^GC*^(−7831): Prm1 with GC element at −7831 mutated (SEQ ID NO:15) (DNA TCACTGTCCTCTCATCT; expressed or natural sequence; listed as Homo sapiens)
Increase in luciferase activity relative to Prm1 (−8500) ([2]; HEL): 2.1 fold

Prm1^GC*^(−8281): Prm1 with GC element at −8281 mutated (SEQ ID NO:11) (DNA GCCCGGTTCCCGCCGGA; expressed or natural sequence; listed as Homo sapiens)
Increase in luciferase activity relative to Prm1 (−8500) ([2]; HEL): 1.9 fold

Prm1^GC*^(−8345): Prm1 with GC element at −8345 mutated (SEQ ID NO:9) (DNA TGCCCCTGACCCCAC; expressed or natural sequence; listed as Homo sapiens)
Increase in luciferase activity relative to Prm1 (−8500) ([2]; HEL): 2.0 fold

B1: Prm1D^WT-1(a, b, x)*: Prm1D-derived promoter with mutations at −6717, −6206 and −6800 (SEQ ID NO:124) (nucleic acid, listed as Homo sapiens)
DNA: GCTCCAAAGCCACCTCCGAGCCTCCTCAAGAGACCCTCCCATGCGATGCCACCACCCCAGCCCTCCCGGCTCACCTGCTCTGGGACCACCTTTCTCAGTCTGGCTGTGTCGTCTGGTGCACCCCCCATCCCTCTGTCCTATCACCCCACCCCTGGAAGGGGCCTCAAATATGTCCTGTATGTATTAAGCAGGGCATACTACTACTGTGTGCCGCGTTCCAGCGCACCCAGTGAATTTGGAGCCCTGGAGTCTGGGCGACCCCCGGGAGCCGATCCGCCTGGACCTGCCCCGCCCCCTCCAGGCCTTGGGTGCTGCCCAGATGGTGAATAATGCGGGCCTGGCGGCGGGAGCGCCGGGAAGAGGCCTGGCAGGGCGCTGGGCGGCTGGAGGGGCTGAGGCTCCCGAGGAAGCGCCCCTGCCACCCCTACGCGGGCCATTGCATCCCTGCCACCGGTGGCCTGGGGGTCCCAAGGGCGCCGCCTTCCCCAGAAGGCTGTAGGGTGTCCCGGCGTGCGGGGGGCACCCACTGACTCCAAGTCAGCCAGGCCCGGGCCCGAGGGGCGTGGCCAGCGCAGGGTGGGCGGGGCTGATGAGAGACAGCGGGAGACAGAGACTGGACGGAGAGAGCGAGCCGCGGGCTGCCAGCGGCCTACACCCGTCCCAGCTCGGCTTAGCCCCCGCGGACCCCTCCAGGCCGCGACCCCAGGGCGTCCTGTGCCGCCACGCCCTCCATCTGTGTGGGTCCTCTGCTGGGCCCGCCCCTGGTCACAGCCAGACTGACTCAGTTTCCCTGGGAGGTCCCGCTCGAGCCCGTCCTTCCCCTCCCTCTGCCCGCCCCCAGCCCTCGCCCCACCCTCGGCGCCCGCACATCTGCCTGCTCAGCTCCAGACGGCGCCCGGACCCCCGGGCGCGGGATCCAGCCAGGTGGGAGCCCCGCAGATGAGGTCTCTGAAG
Statistical significance of luciferase expression vs Prm1D^WT-1(a, b)* ([2]; HEL): *** (p<0.001) | Mean firefly relative to renilla luciferase activity ([2]; HEL cells, co-transfected with pRL-TK, 48 h post-transfection): 38.26 RLU | Luciferase expression compared with another construct, in words ([2]; HEL): an even stronger promoter for driving luciferase expression relative to Prm1D^WT1(a)*^(b)* | Statistical significance of luciferase expression vs Prm1D ([2]; HEL, ↑ = increase): *** (p<0.001)

From patent US20110269825A1, “Modified Thromboxane A2 Receptor Promoter Sequence” (priority 2008, published 2011)
